Data published in patent publication US20250367084A1, “Micellar Composition” (Phytoceutical Limited, priority 2022, published 2025).

Experiments:
[1] = tested on: adult human dermal fibroblast (HDFa) cells; experiment: Cytotoxicity of retinol (Presto Blue / WST-1); format: cell-based; conditions: 24 h exposure
Protocol: The cytotoxicity of retinol was determined.
Experiment 1: A solution of retinol (20 mg/mL) in ethanol (absolute) was prepared. The solution was diluted to 2 mg/mL, forming a light yellow emulsion. The emulsion was diluted in optiMem to provide concentrations of 5, 2.5, 1.25, 0.625 and 0.31 μg/mL retinol. Untreated and detergent controls were included for comparison. Using a Presto Blue assay, adult human dermal fibroblast (HDFa) cells (5 k per well) were exposed to the solutions for 24 h.
Experiment 2: A solution of retinol (20 mg/mL) in 1,2-propanediol was prepared. The solution was diluted to 2 mg/mL, forming an off-white emulsion. The emulsion was diluted in optiMem to provide concentrations of 10, 5, 2.5, 1.25, 0.625 and 0.31 μg/mL retinol. Untreated and detergent controls were included for comparison. Using a WST-1 probe, HDFa cells (5 k per well) were exposed to the solutions for 24 h.
Experiment 3: A solution of retinol (20 mg/mL) in ethanol (absolute) was prepared. The solution was diluted to 2 mg/mL, forming an light yellow emulsion. The emulsion was diluted in optiMem to provide concentrations of 10, 5, 2.5, 1.25, 0.625 and 0.31 μg/mL retinol. Untreated and detergent controls were included for comparison. Using a WST-1 probe, HDFa cells (5 k per well) were exposed to the solutions for 24 h.

[2] = cited from earlier work

SMILES | concentration at which retinol is cytotoxic to the HDFa cell line ([1]; 5 k cells per well) | cytotoxicity at concentration below 10 μg/mL ([1]; concentration below 10 μg/mL) | log P [2]
CC1=C(/C=C/C(C)=C/C=C/C(C)=C/CO)C(C)(C)CCC1 [retinol, Retinol] | ≥ 10000 ng/mL | only little, if any, cytotoxicity | 
C=C(C)[C@@H]1CCC(C)=C[C@H]1c1c(O)cc(CCCCC)cc1O [CBD, cannabidiol] |  |  | ~6.3
